Reference: US6855843B2, “Inhibitors of α4 mediated cell adhesion” (Tanabe Seiyaku Co., Ltd., priority 1998, dated 2005)
Structures can show the parent of a compound that is named as a salt.

What was measured:
[1] = target: T1, α4β7 (adhesion of RPMI cells to CS-1) (Homo sapiens, UniProt P13612+P26010); assay: RPMI-CS-1 cell adhesion assay; format: cell-based; details: adhesion of RPMI B-cell line (expresses α4β7) to CS-1 peptide coated microwells; read-out: RPMI-CS-1 IC50 value range
T1 construct: endogenous in cells
T1 sequence (P13612 34-1032): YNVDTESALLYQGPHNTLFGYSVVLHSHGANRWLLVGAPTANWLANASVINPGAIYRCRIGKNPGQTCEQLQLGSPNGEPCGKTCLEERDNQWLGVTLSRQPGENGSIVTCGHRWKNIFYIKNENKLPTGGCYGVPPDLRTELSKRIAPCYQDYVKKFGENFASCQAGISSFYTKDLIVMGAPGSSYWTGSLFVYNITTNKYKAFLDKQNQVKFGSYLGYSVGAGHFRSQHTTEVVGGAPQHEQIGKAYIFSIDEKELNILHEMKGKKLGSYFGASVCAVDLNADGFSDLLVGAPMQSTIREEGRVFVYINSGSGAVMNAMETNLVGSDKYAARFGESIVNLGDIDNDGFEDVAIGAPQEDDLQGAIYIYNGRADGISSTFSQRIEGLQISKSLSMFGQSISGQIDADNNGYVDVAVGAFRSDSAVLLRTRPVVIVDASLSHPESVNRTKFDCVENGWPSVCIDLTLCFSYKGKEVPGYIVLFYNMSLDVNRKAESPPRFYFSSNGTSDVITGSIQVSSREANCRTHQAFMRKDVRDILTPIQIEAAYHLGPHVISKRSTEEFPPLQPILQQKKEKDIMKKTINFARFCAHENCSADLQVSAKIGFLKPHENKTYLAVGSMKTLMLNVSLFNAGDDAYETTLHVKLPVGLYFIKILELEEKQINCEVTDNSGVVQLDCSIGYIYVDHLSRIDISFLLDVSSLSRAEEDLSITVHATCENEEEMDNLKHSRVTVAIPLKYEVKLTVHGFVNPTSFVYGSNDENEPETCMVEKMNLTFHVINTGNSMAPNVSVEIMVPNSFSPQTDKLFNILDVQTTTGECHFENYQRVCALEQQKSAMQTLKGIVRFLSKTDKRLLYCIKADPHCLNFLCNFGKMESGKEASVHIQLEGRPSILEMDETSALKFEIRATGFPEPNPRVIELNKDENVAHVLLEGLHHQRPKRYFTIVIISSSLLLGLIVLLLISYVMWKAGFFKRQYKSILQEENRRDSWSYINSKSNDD
T1 sequence (P26010 20-798): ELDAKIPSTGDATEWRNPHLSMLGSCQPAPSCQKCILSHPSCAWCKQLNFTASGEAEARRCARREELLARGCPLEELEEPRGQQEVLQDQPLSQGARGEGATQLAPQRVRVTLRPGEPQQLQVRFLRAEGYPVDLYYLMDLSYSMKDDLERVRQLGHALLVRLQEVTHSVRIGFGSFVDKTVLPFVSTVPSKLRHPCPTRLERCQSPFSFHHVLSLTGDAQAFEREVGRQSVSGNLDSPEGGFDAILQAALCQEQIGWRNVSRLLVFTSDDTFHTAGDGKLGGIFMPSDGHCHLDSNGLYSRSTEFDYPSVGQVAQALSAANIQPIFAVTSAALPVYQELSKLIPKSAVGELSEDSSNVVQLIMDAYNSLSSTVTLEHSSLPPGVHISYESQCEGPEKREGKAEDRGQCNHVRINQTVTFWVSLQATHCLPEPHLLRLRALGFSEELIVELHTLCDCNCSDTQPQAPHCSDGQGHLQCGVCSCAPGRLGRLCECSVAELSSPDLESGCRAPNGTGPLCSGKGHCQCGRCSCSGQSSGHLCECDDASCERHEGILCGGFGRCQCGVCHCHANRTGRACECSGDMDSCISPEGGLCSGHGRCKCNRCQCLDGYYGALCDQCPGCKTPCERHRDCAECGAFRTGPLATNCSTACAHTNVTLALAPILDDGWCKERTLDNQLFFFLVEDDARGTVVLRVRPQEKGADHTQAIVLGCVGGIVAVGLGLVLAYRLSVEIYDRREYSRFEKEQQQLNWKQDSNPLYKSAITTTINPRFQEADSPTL

Compound | melting point | IC50 [1]
CCOC(=O)[C@H](Cc1ccc(-c2c(OC)cc(CN3CCOCC3)cc2OC)cc1)NC(=O)c1c(Cl)cccc1Cl.Cl | 177.5 °C | 
CNc1ccc(C(=O)N[C@@H](Cc2ccc(-c3ccccc3OC)cc2)C(=O)O)c(Cl)c1 | 82.8 °C | 
COc1ccccc1-c1ccc(C[C@H](NC(=O)c2ccc(N(C)S(C)(=O)=O)cc2Cl)C(=O)O)cc1 | 79.3 °C | 
CCOC(=O)[C@H](Cc1ccc(-c2c(OC)cc(CN3CCN(C)CC3)cc2OC)cc1)NC(=O)c1c(F)cccc1F (as salt: HCl) [Example 356] | 226 °C | 
COc1cccc(OC)c1-c1ccc(C[C@H](NC(=O)c2c(Cl)cc(-c3ccn[nH]3)cc2Cl)C(=O)O)cc1 (as salt: TFA) [Example 304, N-[4-(5-Pyrazolyl)-2,6-dichlorobenzoyl)-4-(2,6-dimethoxyphenyl)-L-phenylalanine] | 156 °C | 
CCOC(=O)[C@H](Cc1ccc(-c2c(OC)cc(CN(C)C)cc2OC)cc1)NC(=O)c1c(Cl)cccc1Cl (as salt: hydrochloride) [Example 259, N-(2,6-Dichlorobenzoyl)-4-[2,6-dimethoxy-4-[(N,N-dimethylamino)methyl]phenyl]-L-phenylalanine ethyl ester hydrochloride] | 146.5 °C | 
COc1ccccc1-c1cccc(CC(NC(=O)c2c(Cl)cccc2Cl)C(=O)O)c1 (racemic) [Example 6, N-(2,6-Dichlorobenzoyl)-3-[2-methoxyphenyl)-DL-phenylalanine] | 104 °C | > 5000 nM
COc1ccccc1-c1ccc(C[C@@H](NC(=O)c2c(Cl)cccc2Cl)C(=O)O)cc1 [Example 5, N-(2,6-Dichlorobenzoyl)-4-(2-methoxyphenyl)-D-phenylalanine] | 195 °C | 1000 to 5000 nM
COc1ccccc1-c1ccc(C[C@H](NC(=O)c2c(Cl)cccc2Cl)C(=O)O)cc1C(C)=O [Example 71, 3-Acetyl-N-(2,6-dichlorobenzoyl)-4-(2-methoxyphenyl)-L-phenylalanine] | 87 to 89 °C | < 300 nM
CC(=O)c1cc(C[C@H](NC(=O)c2c(Cl)cccc2Cl)C(=O)O)ccc1-c1ccccc1 [Example 72, 3-Acetyl-N-(2,6-dichlorobenzoyl)-4-phenyl-L-phenylalanine] | 109 to 111 °C | 300 to 1000 nM
CC(O)c1cc(C[C@H](NC(=O)c2c(Cl)cccc2Cl)C(=O)O)ccc1-c1ccccc1 (stereo partly drawn) [Example 74, N-(2,6-Dichlorobenzoyl)-3-(1-hydroxyethyl)-4-phenyl-L-phenylalanine] | 115 to 117 °C | 300 to 1000 nM
COc1ccccc1-c1ccc(C[C@H](NC(=O)c2c(Cl)cccc2Cl)C(=O)O)cc1OC [Example 75, N-(2,6-Dichlorobenzoyl)-3-methoxy-4-(2-methoxyphenyl)-L-phenylalanine] | 100 to 102 °C | < 300 nM
Cc1cccc(C)c1-c1ccc(C[C@H](NC(=O)c2c(Cl)cccc2Cl)C(=O)O)cc1 [Example 145] | 200 to 201 °C | 1000 to 5000 nM
O=C(N[C@@H](Cc1ccc(-c2c(C(F)(F)F)cccc2C(F)(F)F)cc1)C(=O)O)c1c(Cl)cccc1Cl [Example 146] | 259 to 260 °C | 300 to 1000 nM
COc1c(C)c(OC)c(-c2ccc(C[C@H](NC(=O)c3c(Cl)cccc3Cl)C(=O)O)cc2)c(OC)c1C [Example 147] | 114 to 115 °C | < 300 nM
COc1cc(C)cc(OC)c1-c1ccc(C[C@H](NC(=O)c2c(Cl)cccc2Cl)C(=O)O)cc1 [Example 148] | 233 to 234 °C | < 300 nM
CCCc1cc(OC)c(-c2ccc(C[C@H](NC(=O)c3c(Cl)cccc3Cl)C(=O)O)cc2)c(OC)c1 [Example 149] | 238 to 239 °C (dec.) | < 300 nM
COc1ccc(F)c(OC)c1-c1ccc(C[C@H](NC(=O)c2c(Cl)cccc2Cl)C(=O)O)cc1 [Example 153A, N-(2,6-Dichlorobenzoyl)-4-(2,6-dimethoxy-3-fluorophenyl)-L-phenylalanine] | 228 to 229 °C | < 300 nM
C=CCN(C(=O)OC(C)(C)C)c1cc(OC)c(-c2ccc(C[C@H](NC(=O)c3c(Cl)cccc3Cl)C(=O)O)cc2)c(OC)c1 [Example 155, N-(2,6-Dichlorobenzoyl)-4-[4-(N-allyl-N-tert-butoxycarbonylamino)-2,6-dimethoxyphenyl]-L-phenylalanine] | 138 to 139 °C | < 300 nM
C=CCNc1cc(OC)c(-c2ccc(C[C@H](NC(=O)c3c(Cl)cccc3Cl)C(=O)O)cc2)c(OC)c1 [Example 156, N-(2,6-Dichlorobenzoyl)-4-(4-allylamino-2,6-dimethoxyphenyl)-L-phenylalanine] | 262 to 263 °C (dec.) | < 300 nM
COc1cc(N)cc(OC)c1-c1ccc(C[C@H](NC(=O)c2c(Cl)cccc2Cl)C(=O)O)cc1 [Example 157, N-(2,6-Dichlorobenzoyl)-4-(4-amino-2,6-dimethoxyphenyl)-L-phenylalanine] | 221 to 222 °C | < 300 nM
COC(=O)Nc1cc(OC)c(-c2ccc(C[C@H](NC(=O)c3c(Cl)cccc3Cl)C(=O)O)cc2)c(OC)c1 [Example 158, N-(2,6-Dichlorobenzoyl)-4-(4-methoxycarbonylamino-2,6-dimethoxyphenyl)-L-phenylalanine] | 235 to 236 °C | < 300 nM
COc1cc(NC(C)=O)cc(OC)c1-c1ccc(C[C@H](NC(=O)c2c(Cl)cccc2Cl)C(=O)O)cc1 [Example 159, N-(2,6-Dichlorobenzoyl)-4-(4-acetylamino-2,6-dimethoxyphenyl)-L-phenylalanine] | 243 to 244 °C | < 300 nM
CNC(=O)Nc1cc(OC)c(-c2ccc(C[C@H](NC(=O)c3c(Cl)cccc3Cl)C(=O)O)cc2)c(OC)c1 [Example 160, N-(2,6-Dichlorobenzoyl)-4-[4-(3-methylureido)-2,6-dimethoxyphenyl]-L-phenylalanine] | 206 to 207 °C | < 300 nM
COc1cc(NC(=O)Nc2ccccc2C)cc(OC)c1-c1ccc(C[C@H](NC(=O)c2c(Cl)cccc2Cl)C(=O)O)cc1 [Example 161, N-(2,6-Dichlorobenzoyl)-4-[4-[3-(2-methylphenyl)ureido]-2,6-dimethoxyphenyl]-L-phenylalanine] | 194 to 195 °C | < 300 nM
COc1cc(CN2CCSCC2)cc(OC)c1-c1ccc(C[C@H](NC(=O)c2c(Cl)cccc2Cl)C(=O)O)cc1 [Example 253, N-(2,6-dichlorobenzoyl)-4-[2,6-dimethoxy-4-(thiomorpholinomethyl)phenyl]-L-phenylalanine] | 86 to 89 °C | 
Cc1noc(C)c1-c1ccc(C[C@H](NC(=O)c2c(Cl)cccc2Cl)C(=O)O)cc1 [Example 330, N-(2,6-Dichlorobenzoyl)-4-(3,5-dimethyl-4-isoxazolyl)-L-phenylalanine] | 119 °C | 
COc1cccc(O)c1-c1ccc(C[C@H](NC(=O)c2c(Cl)cccc2Cl)C(=O)O)cc1 [Example 359, N-(2,6-Dichlorobenzoyl)-4-(6-methoxy-2-hydroxyphenyl)-L-phenylalanine] | 224.4 °C | 
